From the supplement of paper PMC7021759
± gives the standard deviation of the averaged measurements.

System: SK-N-MM (SKNMM-MYCN, doxycycline-inducible MYCN)
Assay: area under dose-response curve (CellTiter-Glo viability normalised to plate controls) (AUC (arbitrary units)); higher = more loss of viability; extreme values may be limits of the assay
Method in brief: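 SK-N-MM cells carrying doxycycline-inducible MYCN were seeded in 96-well plates at 1250 cells/100 μL, and about 24 h later they received medium with or without doxycycline. Two days after that, 10-point 1:3 dilution series of compounds were added by pin transfer (890-fold dilution of stock), with a second dose on day 4. CellTiter-Glo luminescence was measured 3 or 8 days after drugging. Log2 signals were scaled against the positive and negative controls on each plate and used to calculate the area under the dose-response curve.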

[1] = MYCN induction (doxycycline): no doxycycline (MYCN not induced), time after drugging: 3 days
[2] = MYCN induction (doxycycline): +doxycycline (MYCN induced), time after drugging: 8 days
[3] = MYCN induction (doxycycline): no doxycycline (MYCN not induced), time after drugging: 8 days
[4] = MYCN induction (doxycycline): +doxycycline (MYCN induced), time after drugging: 3 days

Row | Structure (SMILES) | area under dose-response curve [1] | area under dose-response curve [2] | area under dose-response curve [3] | area under dose-response curve [4]
1 | O=c1cc(-c2cccc3c2Sc2ccccc2S3)oc(N2CCOCC2)c1 | 16.3 | – | – | –
2 | CC1=C(/C=C/C(C)=C/C=C/C(C)=C/C(=O)O)C(C)(C)CCC1 [TRETINON] | 1.4 | 0.434 | 0 | –
3 | O=C(NC[C@H](O)CO)c1ccncc1Nc1ccc(I)cc1F [PIMASERTIB] | 0 | 125 | 105 | 42.1
4 | CCOC(=O)c1ccc(C#Cc2ccc3c(c2)C(C)(C)CCS3)nc1 [TAZAROTENE] | – | 9.49 | 0.284 | 3.59
5 | Cc1cnc(Nc2ccc(OCCN3CCCC3)cc2)nc1Nc1cccc(S(=O)(=O)NC(C)(C)C)c1 [FEDRATINIB] | 102 | 176 | 151 | 109
6 | COc1cc2c(NC3CCN(C(C)C)CC3)nc(N3CCC(F)(F)CC3)nc2cc1OCCCN1CCCC1 [UNC0642] | 1.33 | 203 | 145 | 0
7 | CC(C)c1cc(-c2n[nH]c(=O)n2-c2ccc3c(ccn3C)c2)c(O)cc1O [GANETESPIB] | 202 | 378 | 398 | 169
8 | CN(C)C(=O)c1cc2cnc(Nc3ccc(N4CCNCC4)cn3)nc2n1C1CCCC1 [RIBOCICLIB] | 0 | 12.9 | 15.9 | 7.07e-05
9 | S=c1[nH]cnc2nc[nH]c12 [MERCAPTOPURINE] | 12.1 | 21.7 | 13.1 | 8.11
10 | CCN1CCN(Cc2ccc(Nc3ncc(F)c(-c4cc(F)c5nc(C)n(C(C)C)c5c4)n3)nc2)CC1 [ABEMACICLIB] | – | – | 14.4 | –
11 | Nc1nccc2c1ncn2[C@@H]1C=C(CO)[C@@H](O)[C@H]1O [3-DEAZANEPLANOCIN] | 10.3 | 119 | 40.9 | 15.9
12 | O=C(CCCCCCC(=O)Nc1ccccc1)NO [VORINOSTAT] | 58.2 | 191 | 145 | 78.4
13 | CCOc1ccn(-c2ccc(F)cc2)c(=O)c1C(=O)Nc1ccc(Oc2ccnc(N)c2Cl)c(F)c1 | 4.76 | 0 | 74.3 | 0
14 | O=C1NC(=O)[C@@H](c2cn3c4c(cccc24)CCC3)[C@@H]1c1c[nH]c2ccccc12 [TIVANTINIB] | 53.3 | 135 | 77.2 | 102
15 | CC(C)C[C@H](NC(=O)[C@H](Cc1ccccc1)NC(=O)c1cnccn1)B(O)O [BORTEZOMIB] | 245 | 382 | 374 | 264
16 | COc1cc(Nc2c(C#N)cnc3cc(OCCCN4CCN(C)CC4)c(OC)cc23)c(Cl)cc1Cl [BOSUTINIB] | 0.885 | 0.0371 | 0.202 | 0.583
17 | Oc1ccc(C2=Cc3ccc(O)cc3OC2)cc1 [IDRONOXIL] | 17.5 | 77.4 | 46.3 | 38.3

Row | Structure (SMILES) | area under dose-response curve [1] | area under dose-response curve [2] | area under dose-response curve [3] | area under dose-response curve [4]
18 | CC1CS(=O)(=O)CCN1/N=C/c1ccc([N+](=O)[O-])o1 (stereo unspecified) [NIFURTIMOX] | 0 | 0 | 0.144 | 3.58
19 | Cc1[nH]c2ccccc2c1CCNCc1ccc(/C=C/C(=O)NO)cc1 [PANOBINOSTAT] | 114 ± 27 | 306 ± 5.3 | 287 ± 4.4 | 171 ± 12
20 | Cc1cccc(-c2nn3c(c2-c2ccnc4ccc(C(N)=O)cc24)CCC3)n1 | 0 | 0 | 0 | 0
21 | CC(C)NC[C@@H](C(=O)N1CCN(c2ncnc3c2[C@H](C)C[C@H]3O)CC1)c1ccc(Cl)cc1 [IPATASERTIB] | 10.4 | 0 | 0.0606 | 0
22 | CC(=O)c1ccc2c(c1)c1cc(C(C)=O)ccc1n2CCNC(C)C [CBL-0137] | 94.2 | 176 | 172 | 116
23 | CO[C@H]1C(=O)[C@]2(C)[C@@H](OC)C[C@H]3OC[C@@]3(OC(C)=O)[C@H]2[C@H](OC(=O)c2ccccc2)[C@]2(O)C[C@H](OC(=O)[C@H](O)[C@@H](NC(=O)OC(C)(C)C)c3ccccc3)C(C)=C1C2(C)C [CABAZITAXEL] | 140 | 350 | 225 | 195
24 | Cc1cnc(CNC(=O)c2c(=O)c3ccc(N4CCCN(C)CC4)nc3n3c2sc2ccccc23)cn1 [CX-5461] | 11.7 | 11.3 | – | –
25 | COC(=O)N[C@@H](C)CNc1nccc(-c2cn(C(C)C)nc2-c2cc(Cl)cc(NS(C)(=O)=O)c2F)n1 [LGX-818] | 11 | 2.41 | 68.6 | 12.9
26 | Nc1ncn([C@@H]2O[C@H](CO)[C@@H](O)[C@H]2O)c(=O)n1 [5-AZACYTIDINE] | 21.5 | 58.3 | 23.6 | 33.8
27 | CC1=C(CC(=O)O)c2cc(F)ccc2/C1=C\c1ccc([S+](C)[O-])cc1 (stereo unspecified) [SULINDAC] | 0 | 0 | 0 | –
28 | CC[C@@H]1C(=O)N(C)c2cnc(Nc3ccc(C(=O)N[C@H]4CC[C@H](N5CCN(CC6CC6)CC5)CC4)cc3OC)nc2N1C(C)C [VOLASERTIB] | – | 138 | 75.2 | 87.9
29 | C/C(=C\c1csc(C)n1)[C@@H]1C[C@@H]2O[C@]2(C)CCC[C@H](C)[C@H](O)[C@@H](C)C(=O)C(C)(C)[C@@H](O)CC(=O)N1 [IXABEPILONE] | 89.9 | 199 | 138 | 121
30 | Cn1cc(-c2cnn3c(N)c(Br)c([C@@H]4CCCNC4)nc23)cn1 | 31.4 | 122 | 74.9 | 67.2
31 | CN1C(=O)[C@@]23C[C@]4([C@]56C[C@@]78SS[C@@](CO)(C(=O)N7[C@H]5Nc5ccccc56)N(C)C8=O)c5ccccc5N[C@@H]4N2C(=O)[C@]1(CO)SS3 [CHAETOCIN] | 349 | 374 | 373 | 327
32 | Cc1c(-c2c(-c3ccc(F)o3)sc3ncnc(O[C@H](Cc4ccccc4OCc4ccnn4CC(F)(F)F)C(=O)O)c23)ccc(OCCN2CCN(C)CC2)c1Cl | – | 7.67 | – | –
33 | CC(=O)O[C@@]12CO[C@@H]1C[C@H](O)[C@@]1(C)C(=O)[C@H](O)C3=C(C)[C@@H](OC(=O)[C@H](O)[C@@H](NC(=O)OC(C)(C)C)c4ccccc4)C[C@@](O)([C@@H](OC(=O)c4ccccc4)[C@H]21)C3(C)C [DOCETAXEL] | 107 | 292 | 183 | 142
34 | CC[C@H](Nc1nc(NCc2cnc(C)cc2C)c2ncn(C(C)C)c2n1)[C@@H](C)O [CYC-065] | 45.7 | 165 | 160 | 66.2
